Source: patent US20080152765A1, “Coated Granular Formulations” (priority 2005, published 2008)
Several values for one entry are separate records, joined by “and”; a condition that tells them apart may be missing. Equal values may be shown once.

Legend:
Assay type in all cases: physicochemical
[1] = Hygroscopicity and photosensitivity of starting material NADH, exposure to light, RH 75%, 20° C.; conditions: for weight (increase in weight relative to time zero): T = 0 2.00 g
Method: The hygroscopicity and photosensitivity of the starting material NADH (s.m.) was determined as increase in weight, relative to time zero, the relative content being given in p.a.: […]

[2] = Stability of the protected NADH product relative to the starting material, 5 days at 53° C.
[3] = Stability of the protected SAMe product relative to the starting material, 5 days at 53° C.
[4] = Increase of hygroscopicity in % by weight, SAMe, 75% RH 40° C.
[5] = Hygroscopicity of starting material SAMe, exposure at 75% RH and 20° C.; conditions: for weight (increase in weight relative to time zero): T = 0 2.00 g
Method: The hygroscopicity of the starting material SAMe (s.m.) was determined as increase in weight, relative to the time zero, the relative content being given in p.a.: […]

[6] = 1 day exposure to light, RH 75%, 20° C.
[7] = 2 days exposure to light, RH 75%, 20° C.
[8] = 3 days exposure to light, RH 75%, 20° C.
[9] = 4 days exposure to light, RH 75%, 20° C.
[10] = 5 days at 53° C., listed as s.m.

For NC(=O)C1=CN([C@@H]2O[C@H](COP(=O)(O)OP(=O)(O)OC[C@H]3O[C@@H](n4cnc5c(N)ncnc54)[C@H](O)[C@@H]3O)[C@@H](O)[C@H]2O)C=CC1 [NADH], which “NAD+ impurity” value [1, 6] is on record?
Its value is 1.21%.

What about the NADH content [1, 6] of the same compound?
Its NADH content is 97.9%.

What about the “Water (KF)” value [1, 6] of the same compound?
Its value is 1.82%.

What about the “weight (increase in weight relative to time zero)” value [1, 6] of the same compound?
Its value is 2.20 g.

What about the “NAD+ impurity” value [1, 7] of the same compound?
Its value is 1.55%.

And the NADH content [1, 7]?
The NADH content was 97.3%.

And the “Water (KF)” value [1, 7]?
Its value is 1.91%.

And the “weight (increase in weight relative to time zero)” value [1, 7]?
Its value is 2.40 g.

What about the “NAD+ impurity” value [1, 8] of the same compound?
The value was 2.89%.

And the NADH content [1, 8]?
The NADH content was 96.0%.

And the “Water (KF)” value [1, 8]?
The value was 2.44%.

And the “weight (increase in weight relative to time zero)” value [1, 8]?
The value was 2.50 g.

And the “NAD+ impurity” value [1, 9]?
The value was 3.45%.

And the NADH content [1, 9]?
Its NADH content is 95.5%.

And the “Water (KF)” value [1, 9]?
Its value is 2.86%.

And the “weight (increase in weight relative to time zero)” value [1, 9]?
The value was 2.80 g.

And the “NAD+ impurity” value ([1]; T = 0)?
Its value is 0.55%.

What about the NADH content ([1]; T = 0) of the same compound?
Its NADH content is 98.4%.

What about the “Water (KF)” value ([1]; T = 0) of the same compound?
Its value is 1.2%.

And the “% NAD+ content” value ([2]; 5 days at 53° C.)?
The value was 2.3%.

And the “% NADH content” value ([2]; 5 days at 53° C.)?
The value was 98.4%.

What about the “% water (KF)” value ([2]; 5 days at 53° C.) of the same compound?
The value was 1.5%.

And the “% NAD+ content” value ([2]; T = 0)?
Its value is 0.5%.

And the “% NADH content” value ([2]; T = 0)?
Its value is 100.1%.

And the “% water (KF)” value ([2]; T = 0)?
Its value is 1.3%.

Which “% water (KF)” value ([3]; 5 days at 53° C.) does the source give for C[S+](CC[C@H](N)C(=O)O)C[C@H]1O[C@@H](n2cnc3c(N)ncnc32)[C@H](O)[C@@H]1O (stereo partly shown) [SAMe, S-adenosylmethionine] here?
Its value is 1.5%.

And the “% Ionic SAMe content” value [3, 10]?
Its value is 48.5% and 47.3%.

What about the “% MTA” value [3, 10] of the same compound?
The value was 3.45% and 3.87%.

What about the “% adenine + adenosine” value [3, 10] of the same compound?
Its value is 3.35% and 3.54%.

What about the “% Ionic SAMe content” value ([3]; T = 0, listed as s.m) of the same compound?
Its value is 52.4%.

What about the “% MTA” value ([3]; T = 0, listed as s.m) of the same compound?
The value was 0.3%.

What about the “% adenine + adenosine” value ([3]; T = 0, listed as s.m) of the same compound?
The value was 0.6%.

What about the “% water (KF)” value ([3]; T = 0, listed as s.m) of the same compound?
The value was 1.6%.

And the “% Ionic SAMe content” value ([3]; T = 0, listed as s.m.)?
The value was 52.1%.

And the “% MTA” value ([3]; T = 0, listed as s.m.)?
The value was 0.6%.

What about the “% adenine + adenosine” value ([3]; T = 0, listed as s.m.) of the same compound?
The value was 0.4%.

What about the “% water (KF)” value ([3]; T = 0, listed as s.m.) of the same compound?
The value was 1.5%.

What about the “Increase of hygroscopicity in % by weight” value ([4]; 1 day at 75% RH and 40° C.) of the same compound?
Its value is 50%.

And the “Increase of hygroscopicity in % by weight” value ([4]; T = 0)?
Its value is 0.00 % by weight.

And the “hygroscopicity and stability, in words” value ([5]; 75% RH and 20° C., 4 days)?
Its value is “high hygroscopicity and high instability”.

And the “% MTA” value ([5]; 1 day at 75% RH and 20° C.)?
The value was 1.5%.

What about the “% adenine + adenosine” value ([5]; 1 day at 75% RH and 20° C.) of the same compound?
The value was 1.3%.

And the “% ionic SAMe” value ([5]; 1 day at 75% RH and 20° C.)?
The value was 51.1%.

And the “% water (KF)” value ([5]; 1 day at 75% RH and 20° C.)?
The value was 2.1%.

And the “weight (increase in weight relative to time zero)” value ([5]; 1 day at 75% RH and 20° C.)?
Its value is 2.40 g.

What about the “% MTA” value ([5]; 2 days at 75% RH and 20° C.) of the same compound?
The value was 1.9%.

What about the “% adenine + adenosine” value ([5]; 2 days at 75% RH and 20° C.) of the same compound?
Its value is 2.4%.

What about the “% ionic SAMe” value ([5]; 2 days at 75% RH and 20° C.) of the same compound?
Its value is 50.3%.

What about the “% water (KF)” value ([5]; 2 days at 75% RH and 20° C.) of the same compound?
Its value is 2.9%.

What about the “weight (increase in weight relative to time zero)” value ([5]; 2 days at 75% RH and 20° C.) of the same compound?
Its value is 2.90 g.

What about the “% MTA” value ([5]; 3 days at 75% RH and 20° C.) of the same compound?
The value was 2.4%.

And the “% adenine + adenosine” value ([5]; 3 days at 75% RH and 20° C.)?
The value was 2.9%.

What about the “% ionic SAMe” value ([5]; 3 days at 75% RH and 20° C.) of the same compound?
The value was 47.3%.

What about the “% water (KF)” value ([5]; 3 days at 75% RH and 20° C.) of the same compound?
The value was 3.4%.

What about the “weight (increase in weight relative to time zero)” value ([5]; 3 days at 75% RH and 20° C.) of the same compound?
Its value is 3.50 g.

What about the “% MTA” value ([5]; 4 days at 75% RH and 20° C.) of the same compound?
The value was 3.0%.

And the “% adenine + adenosine” value ([5]; 4 days at 75% RH and 20° C.)?
Its value is 3.2%.

What about the “% ionic SAMe” value ([5]; 4 days at 75% RH and 20° C.) of the same compound?
The value was 45.1%.

What about the “% water (KF)” value ([5]; 4 days at 75% RH and 20° C.) of the same compound?
The value was 3.8%.

What about the “weight (increase in weight relative to time zero)” value ([5]; 4 days at 75% RH and 20° C.) of the same compound?
Its value is 4.50 g.

What about the “% MTA” value ([5]; T(0)) of the same compound?
Its value is “T(0) = 0.6%”.

What about the “% adenine + adenosine” value ([5]; T(0)) of the same compound?
The value was “T(0) = 0.4%”.

What about the “% ionic SAMe” value ([5]; T(0)) of the same compound?
The value was “T(0) = 52.1%”.

And the “% water (KF)” value ([5]; T(0))?
Its value is “T(0) = 1.5%”.
